Measured values reported in publication PMC12858634, “Functional characterisation of Target of Rapamycin (TOR) signalling in Physcomitrella” (Plant Cell Reports, 2026).

Target: T1, PpFKBP12 (Physcomitrium patens, UniProt A0A2K1L9Z1, M56K/G57Q/R58E)
T1 construct: gene LOC112274967
Test: yeast fkbp12 deletion complementation, growth spot assay
Format: cell-based
Conditions: rapamycin 100 or 200 nM, galactose medium, 30 °C, 5 days; acts as FKBP12-rapamycin complex on host yeast TOR

T1 sequence (A0A2K1L9Z1 entry or part of it M56K/G57Q/R58E): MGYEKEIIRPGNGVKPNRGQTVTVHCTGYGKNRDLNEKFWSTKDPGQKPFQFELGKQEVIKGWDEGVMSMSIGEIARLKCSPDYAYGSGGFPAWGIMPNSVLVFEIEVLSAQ

Compound: CO[C@H]1C[C@@H]2CC[C@@H](C)[C@@](O)(O2)C(=O)C(=O)N2CCCC[C@H]2C(=O)O[C@H]([C@H](C)C[C@@H]2CC[C@@H](O)[C@H](OC)C2)CC(=O)[C@H](C)/C=C(\C)[C@@H](O)[C@@H](OC)C(=O)[C@H](C)C[C@H](C)/C=C/C=C/C=C/1C [rapamycin]
- yeast fkbp12 deletion complementation, growth spot assay: all but PpFKBP12^W40D complemented the rapamycin-resistant phenotype of fkbp12Δ cells
